One molecule from patent publication US20070010498A1, “Method for reducing blood loss associated with cardio-pulmonary bypass surgery” (priority 2005, published 2007) can be followed below.

This series can be described thus: plasma concentrations of COL-3 in humans. Format: in vivo. The note with it: dose of about 10 to about 20 mg/day.

As for `NC(=O)C1=C(O)C[C@@H]2C[C@@H]3Cc4cccc(O)c4C(=O)C3=C(O)[C@]2(O)C1=O` [COL-3, 6-demethyl-6-deoxy-4-de(dimethylamino)tetracycline], the plasma concentrations entry was “about 1.0 μg/ml”.
